In ChEMBL document CHEMBL1201862, “PubChem BioAssay data set” (2004):
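48-hour exposure; five concentrations; linearly interpolated endpoints. Abbreviation: GI50, concentration required for 50% inhibition of growth.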 Activity calls are given as the source filed them. Cut-off read from the data, not from the text of the source: active = GI50 up to about 1.1 µM and inactive = higher.

Tests used:
Assay in all cases: NCI-60 cell line screen, 48 h
UO-31 = test system: UO-31
CAKI-1 = test system: CAKI-1
COLO 205 = test system: COLO 205
A549 = test system: A549
NCI-H226 = test system: NCI-H226
U-251 = test system: U-251
OVCAR-4 = test system: OVCAR-4
Malme-3M = test system: Malme-3M
SF-295 = test system: SF-295
EKVX = test system: EKVX
ACHN = test system: ACHN
MCF7 = test system: MCF7
Hs-578T = test system: Hs-578T
TK-10 = test system: TK-10
SW-620 = test system: SW-620
BT-549 = test system: BT-549
NCI/ADR-RES = test system: NCI/ADR-RES
HCT-15 = test system: HCT-15
SK-MEL-2 = test system: SK-MEL-2
SNB-19 = test system: SNB-19
HOP-62 = test system: HOP-62
MOLT-4 = test system: MOLT-4
SN12C = test system: SN12C
HT-29 = test system: HT-29
T47D = test system: T47D
HCT-116 = test system: HCT-116
NCI-H23 = test system: NCI-H23
UACC-62 = test system: UACC-62
OVCAR-3 = test system: OVCAR-3
786-0 = test system: 786-0
RPMI-8226 = test system: RPMI-8226
SF-539 = test system: SF-539
HL-60 = test system: HL-60
OVCAR-8 = test system: OVCAR-8
PC-3 = test system: PC-3
LOX IMVI = test system: LOX IMVI
DU-145 = test system: DU-145
SNB-75 = test system: SNB-75
SK-MEL-5 = test system: SK-MEL-5
MDA-N = test system: MDA-N
MDA-MB-435 = test system: MDA-MB-435
OVCAR-5 = test system: OVCAR-5
UACC-257 = test system: UACC-257
SK-MEL-28 = test system: SK-MEL-28
KM12 = test system: KM12
SF-268 = test system: SF-268
SK-OV-3 = test system: SK-OV-3
NCI-H522 = test system: NCI-H522
M14 = test system: M14
SR = test system: SR
RXF 393 = test system: RXF 393
CCRF-CEM = test system: CCRF-CEM
IGROV-1 = test system: IGROV-1
A498 = test system: A498
HCC 2998 = test system: HCC 2998
K562 = test system: K562
NCI-H460 = test system: NCI-H460
HOP-92 = test system: HOP-92

## COc1cc(N(Cc2ccc3nc(OC)c(OC)nc3c2)Cc2ccc3nc(OC)c(OC)nc3c2)cc(OC)c1OC
UO-31
  GI50: 31.5 µM (inactive)
CAKI-1
  GI50: > 50 µM (inactive)
COLO 205
  GI50: > 50 µM (inactive)
A549
  GI50: > 50 µM (inactive)
NCI-H226
  GI50: > 50 µM (inactive)
U-251
  GI50: 19.8 µM (inactive)
OVCAR-4
  GI50: > 50 µM (inactive)
Malme-3M
  GI50: > 50 µM (inactive)
SF-295
  GI50: 19.6 µM (inactive)
EKVX
  GI50: 39.3 µM (inactive)
ACHN
  GI50: 42.2 µM (inactive)
MCF7
  GI50: 32.9 µM (inactive)
Hs-578T
  GI50: 7.67 µM (inactive)
TK-10
  GI50: 30.8 µM (inactive)
SW-620
  GI50: > 50 µM (inactive)
BT-549
  GI50: 6.78 µM (inactive)
NCI/ADR-RES
  GI50: > 50 µM (inactive)
HCT-15
  GI50: > 50 µM
SK-MEL-2
  GI50: 20.9 µM (inactive)
SNB-19
  GI50: 14.9 µM (inactive)
HOP-62
  GI50: 1.3 µM (inactive)
MOLT-4
  GI50: > 50 µM (inactive)
SN12C
  GI50: > 50 µM (inactive)
HT-29
  GI50: > 50 µM (inactive)
T47D
  GI50: > 50 µM (inactive)
HCT-116
  GI50: 33.2 µM (inactive)
NCI-H23
  GI50: > 50 µM (inactive)
UACC-62
  GI50: > 50 µM (inactive)
OVCAR-3
  GI50: 31.5 µM (inactive)
786-0
  GI50: 16.3 µM (inactive)
RPMI-8226
  GI50: > 50 µM (inactive)
SF-539
  GI50: 26.3 µM (inactive)
HL-60
  GI50: > 50 µM (inactive)
OVCAR-8
  GI50: > 50 µM (inactive)
PC-3
  GI50: > 50 µM (inactive)
LOX IMVI
  GI50: > 50 µM (inactive)
DU-145
  GI50: > 50 µM (inactive)
SNB-75
  GI50: 6.9 µM (inactive)
SK-MEL-5
  GI50: > 50 µM (inactive)
MDA-N
  GI50: > 50 µM (inactive)
MDA-MB-435
  GI50: > 50 µM (inactive)
OVCAR-5
  GI50: > 50 µM (inactive)
UACC-257
  GI50: > 50 µM (inactive)
SK-MEL-28
  GI50: > 50 µM (inactive)
KM12
  GI50: > 50 µM (inactive)
SF-268
  GI50: 32.1 µM (inactive)
SK-OV-3
  GI50: 29.1 µM (inactive)
NCI-H522
  GI50: > 50 µM (inactive)
M14
  GI50: > 50 µM (inactive)
SR
  GI50: > 50 µM (inactive)
RXF 393
  GI50: 10.7 µM (inactive)

## COc1ccc(NC(=S)c2ccc(CN3CCCCC3)s2)cc1
CCRF-CEM
  GI50: 14.8 µM (inactive)
UO-31
  GI50: 18.4 µM (inactive)
CAKI-1
  GI50: 27.9 µM (inactive)
COLO 205
  GI50: 16.2 µM (inactive)
A549
  GI50: 20.3 µM (inactive)
U-251
  GI50: 17.1 µM (inactive)
OVCAR-4
  GI50: 29 µM (inactive)
Malme-3M
  GI50: 17.5 µM (inactive)
SF-295
  GI50: 18.3 µM (inactive)
EKVX
  GI50: 18.8 µM (inactive)
ACHN
  GI50: 31 µM (inactive)
MCF7
  GI50: 17 µM (inactive)
Hs-578T
  GI50: 12.6 µM (inactive)
SW-620
  GI50: 19.4 µM (inactive)
BT-549
  GI50: 17 µM (inactive)
NCI/ADR-RES
  GI50: 23 µM (inactive)
HCT-15
  GI50: 12.8 µM
SK-MEL-2
  GI50: 19.4 µM (inactive)
SNB-19
  GI50: 21.3 µM (inactive)
HOP-62
  GI50: 20.6 µM (inactive)
MOLT-4
  GI50: 20.1 µM (inactive)
SN12C
  GI50: 47 µM (inactive)
IGROV-1
  GI50: 22.8 µM (inactive)
A498
  GI50: 16.2 µM (inactive)
HT-29
  GI50: 5.46 µM (inactive)
T47D
  GI50: 19.8 µM (inactive)
HCT-116
  GI50: 16.9 µM (inactive)
NCI-H23
  GI50: 12.5 µM (inactive)
UACC-62
  GI50: 17.1 µM (inactive)
OVCAR-3
  GI50: 33.6 µM (inactive)
786-0
  GI50: 17.8 µM (inactive)
RPMI-8226
  GI50: 23.4 µM (inactive)
SF-539
  GI50: 43.9 µM (inactive)
HL-60
  GI50: 14.3 µM (inactive)
OVCAR-8
  GI50: 17.9 µM (inactive)
PC-3
  GI50: 25.6 µM (inactive)
LOX IMVI
  GI50: 18.1 µM (inactive)
DU-145
  GI50: 38.2 µM (inactive)
SK-MEL-5
  GI50: 14.3 µM (inactive)
MDA-N
  GI50: 18.5 µM (inactive)
MDA-MB-435
  GI50: 19.6 µM (inactive)
HCC 2998
  GI50: 16.6 µM (inactive)
OVCAR-5
  GI50: 16.4 µM (inactive)
UACC-257
  GI50: 16.6 µM (inactive)
SK-MEL-28
  GI50: 17.3 µM (inactive)
K562
  GI50: 12.5 µM (inactive)
KM12
  GI50: 17.7 µM (inactive)
NCI-H460
  GI50: 17.5 µM (inactive)
SF-268
  GI50: 18 µM (inactive)
SK-OV-3
  GI50: 16.4 µM (inactive)
NCI-H522
  GI50: 14.8 µM (inactive)
M14
  GI50: 16.7 µM (inactive)
SR
  GI50: 16.8 µM (inactive)

## O[C@@]12Cc3c([nH]c4ccccc34)[C@@H]3Oc4c(-c5ccccc5)ccc5c4[C@@]31CCN(CC1CC1)[C@@H]2C5
CCRF-CEM
  GI50: 2.92 µM (inactive)
UO-31
  GI50: 1.74 µM (inactive)
CAKI-1
  GI50: 2.97 µM (inactive)
COLO 205
  GI50: 1.81 µM (inactive)
A549
  GI50: 1.89 µM (inactive)
U-251
  GI50: 1.71 µM (inactive)
OVCAR-4
  GI50: 2.71 µM (inactive)
Malme-3M
  GI50: 1.9 µM (inactive)
SF-295
  GI50: 1.69 µM (inactive)
EKVX
  GI50: 2.01 µM (inactive)
HOP-92
  GI50: 5.19 µM (inactive)
ACHN
  GI50: 1.44 µM (inactive)
MCF7
  GI50: 1.83 µM (inactive)
Hs-578T
  GI50: 1.85 µM (inactive)
SW-620
  GI50: 2.11 µM (inactive)
BT-549
  GI50: 10.8 µM (inactive)
NCI/ADR-RES
  GI50: 2.51 µM (inactive)
HCT-15
  GI50: 1.95 µM
SK-MEL-2
  GI50: 1.84 µM (inactive)
SNB-19
  GI50: 1.88 µM (inactive)
HOP-62
  GI50: 1.51 µM (inactive)
MOLT-4
  GI50: 3.07 µM (inactive)
IGROV-1
  GI50: 4.07 µM (inactive)
A498
  GI50: 1.47 µM (inactive)
HT-29
  GI50: 1.77 µM (inactive)
T47D
  GI50: 2 µM (inactive)
HCT-116
  GI50: 1.73 µM (inactive)
NCI-H23
  GI50: 1.78 µM (inactive)
UACC-62
  GI50: 1.8 µM (inactive)
OVCAR-3
  GI50: 1.49 µM (inactive)
786-0
  GI50: 1.65 µM (inactive)
RPMI-8226
  GI50: 3.65 µM (inactive)
HL-60
  GI50: 2.06 µM (inactive)
OVCAR-8
  GI50: 2.22 µM (inactive)
PC-3
  GI50: 1.84 µM (inactive)
LOX IMVI
  GI50: 1.89 µM (inactive)
SK-MEL-5
  GI50: 1.83 µM (inactive)
MDA-N
  GI50: 1.73 µM (inactive)
MDA-MB-435
  GI50: 1.77 µM (inactive)
HCC 2998
  GI50: 1.57 µM (inactive)
OVCAR-5
  GI50: 4.11 µM (inactive)
UACC-257
  GI50: 1.84 µM (inactive)
SK-MEL-28
  GI50: 1.71 µM (inactive)
K562
  GI50: 2.33 µM (inactive)
KM12
  GI50: 1.5 µM (inactive)
NCI-H460
  GI50: 1.72 µM (inactive)
SF-268
  GI50: 3.42 µM (inactive)
SK-OV-3
  GI50: 2.95 µM (inactive)
NCI-H522
  GI50: 1.77 µM (inactive)
M14
  GI50: 1.82 µM (inactive)
SR
  GI50: 2.79 µM (inactive)
